The source of these data is patent US9688668B2, “Long chain base sphingosine kinase inhibitors” (UNIVERSITY OF VIRGINIA PATENT FOUNDATION, priority 2012, dated 2017).

In general, Ki refers to a dissociation constant, usually derived from enzyme kinetics or from competition with a known ligand.

A value given as a limit tells only on which side of the number the result lay.

For the first test, the target named is recombinant SphK1 (Homo sapiens (Human), UniProt Q9NYA1). The experiment in a line: SphK1 scintillation proximity kinase assay.
Chain of recombinant SphK1 (Q9NYA1 whole entry): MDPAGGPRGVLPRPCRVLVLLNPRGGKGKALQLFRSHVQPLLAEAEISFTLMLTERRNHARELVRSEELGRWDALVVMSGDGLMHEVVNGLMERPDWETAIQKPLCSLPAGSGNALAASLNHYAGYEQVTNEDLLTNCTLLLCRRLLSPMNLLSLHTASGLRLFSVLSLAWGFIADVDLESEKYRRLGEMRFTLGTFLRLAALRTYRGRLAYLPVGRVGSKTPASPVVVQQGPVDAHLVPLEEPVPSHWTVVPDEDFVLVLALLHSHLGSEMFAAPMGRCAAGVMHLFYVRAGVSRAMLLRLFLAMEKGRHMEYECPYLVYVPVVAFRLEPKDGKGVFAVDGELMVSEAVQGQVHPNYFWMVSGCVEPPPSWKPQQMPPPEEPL
Conditions: not given
(Scintillation proximity formats need no separation of bound from free tracer.)
For `CCCCCCCCc1ccc(-c2noc(C3CN(C(=N)N)C3)n2)cc1` [Compound 66, 3-(3-(4-octylphenyl)-1,2,4-oxadiazol-5-yl)azetidine-1-carboximidamide], the Ki is 1 to 10 µM. Still for that read-out and setting: the value for `CCCCCCCCc1ccc(-c2noc([C@H](C)NC(=N)N)n2)cc1` [Compound 47, (S)-1-(1-(3-(4-octylphenyl)-1,2,4-oxadiazol-5-yl)ethyl)guanidine] was 1 to 10 µM; that for `CCCCCCCCCCCCc1ccc(-c2noc(C3(C(=N)N)CC3)n2)cc1` [Compound 11, 1-(3-(4-dodecylphenyl)-1,2,4-oxadiazol-5-yl) cyclopropanecarboximidamide] was 1 to 10 µM; that for `CCCCCCCCCCCCCCCCC(=N)N` [Compound 3, heptadecanimidamide] was 1 to 10 µM. The same measure, in the same setting: as for `CCCCCCCCc1ccc(-c2noc([C@@H](NC(=N)N)C(C)C)n2)cc1` [Compound 48, (S)-1-(2-methyl-1-(3-(4-octylphenyl)-1,2,4-oxadiazol-5-yl)propyl)guanidine], the figure is 1 to 10 µM; as for `N=C(N)N1CC[C@H]1c1nc(-c2ccc(-c3ccccc3)cc2)no1` [Compound 60, (S)-2-(3-([1,1′-biphenyl]-4-yl)-1,2,4-oxadiazol-5-yl)azetidine-1-carboximidamide], over 10 µM; as for `CCCCCCCCc1ccc(-c2noc(CNC(=N)N)n2)cc1` [Compound 46, 1-((3-(4-octylphenyl)-1,2,4-oxadiazol-5-yl)methyl)guanidine], 1 to 10 µM. As to `CCCCCCCCCCc1ccc(-c2noc([C@@H]3CCCN3C(=N)N)n2)cc1` [Compound 54, (S)-2-(3-(4-decylphenyl)-1,2,4-oxadiazol-5-yl)pyrrolidine-1-carboximidamide], the Ki was 1 to 10 µM. On the same count and under the same terms, the value for `CCCCCCCCCCCc1cc(-c2noc(C3(C(=N)N)CC3)n2)ccc1OC` [Compound 14, 1-(3-(4-methoxy-3-undecylphenyl)-1,2,4-oxadiazol-5-yl)cyclopropanecarboximidamide] was under 1 µM; that for `CCCCCCCCCCCCc1ccc(-c2noc([C@@H]3CCCN3C(=N)N)n2)cc1` [Compound 55, (S)-2-(3-(4-dodecylphenyl)-1,2,4-oxadiazol-5-yl)pyrrolidine-1-carboximidamide] was over 10 µM. The same measure, in the same setting: the value for `CCCCCCCCCCc1ccc(-c2noc([C@@H]3CCN3C(=N)N)n2)cc1` [Compound 63, (S)-2-(3-(4-decylphenyl)-1,2,4-oxadiazol-5-yl)azetidine-1-carboximidamide] was 1 to 10 µM.

As for `CCCCCCc1ccc(-c2noc([C@@H]3CCCN3C(=N)N)n2)cc1` [Compound 56, (S)-2-(3-(4-hexylphenyl)-1,2,4-oxadiazol-5-yl)pyrrolidine-1-carboximidamide], the Ki was over 10 µM. The same measure, in the same setting: the value for `CCCCCCCCc1ccc([C@H]2CC[C@H](NC(=N)N)CC2)cc1` [Compound 34, 1-((1R,4R)-4-(4-octylphenyl)-cyclohexyl)guanidine] was 1 to 10 µM.

The test is the same for the next values; noted with them: read-out: SphK1 (estimated Ki range); Estimated Ki values at recombinant SphK1.
In the case of `CCCCCCCCCCCCc1ccc(NC(=O)C2(NC(=N)N)CC2)cc1` [Compound 36, N-(4-dodecylphenyl)-1-guanidinocyclopropane-carboxamide], the Ki is over 10 µM.

As for `CCCCCCCCCCCCC/C=C/[C@@H](O)[C@@H](N)C(=N)N` [Compound 2, (2S,3R,E)-2-amino-3-hydroxyoctadec-4-enimidamide], the Ki was over 10 µM.

In the case of `CCCCCCCCCCCCc1ccc(-c2noc(CC(=N)N)n2)cc1` [Compound 12, 2-(3-(4-dodecylphenyl)-1,2,4-oxadiazol-5-yl)acetimidamide], the Ki was over 10 µM. In the case of `CCCCCCCCc1ccc(-c2noc(CN(C)C(=N)N)n2)cc1` [Compound 45, 1-methyl-1-((3-(4-octylphenyl)-1,2,4-oxadiazol-5-yl)methyl)guanidine], the Ki was over 10 µM. With `CCCCCCc1ccc(-c2noc([C@@H]3CCN3C(=N)N)n2)cc1` [Compound 61, (S)-2-(3-(4-hexylphenyl)-1,2,4-oxadiazol-5-yl)azetidine-1-carboximidamide], the Ki is over 10 µM. Turning to `CCCCCCCCCCCCCCc1ccc(-c2noc([C@@H]3CCCN3C(=N)N)n2)cc1` [Compound 57, (S)-2-(3-(4-tetradecylphenyl)-1,2,4-oxadiazol-5-yl)pyrrolidine-1-carboximidamide], the Ki was over 10 µM. The same measure, in the same setting: as for `CCCCCCCCc1ccc(CNC(=O)C2(NC(=N)N)CC2)cc1` [Compound 35, 1-guanidino-N-(4-octylbenzyl) cyclopropanecarboxamide], the figure is over 10 µM. The same measure, in the same setting: as for `CCCCCCCCCCCCc1ccc(-c2coc(C(C)C(=N)N)n2)cc1` (stereo not shown) [Compound 18, 2-(4-(4-dodecylphenyl)oxazol-2-yl)propanimidamide], the figure is over 10 µM.

As for `CCCCCCCCc1ccc(-c2noc([C@@H]3CCN3C(=N)NO)n2)cc1` [Compound 65, (S)-N-hydroxy-2-(3-(4-octylphenyl)-1,2,4-oxadiazol-5-yl)azetidine-1-carboximidamide], the Ki was over 10 µM. In the case of `CCCCCCCCCCCc1ccc(-c2noc(C3(NC(=N)N)CC3)n2)cc1` [Compound 43, 1-(1-(3-(4-undecylphenyl)-1,2,4-oxadiazol-5-yl)cyclopropyl)guanidine], the Ki was over 10 µM. Consider `CCCCCCCCCCCCc1ccc(C(=O)NNC(=N)N)cc1` [Compound 1, 2-(4-dodecylbenzoyl)hydrazine carboximidamide], for which the Ki is over 10 µM. Still for that read-out and setting: as for `CCCCCCCCCCc1ccc(-c2noc(C3CN(C(=N)N)C3)n2)cc1` [Compound 67, 3-(3-(4-decylphenyl)-1,2,4-oxadiazol-5-yl)azetidine-1-carboximidamide], the figure is over 10 µM; as for `CCCCCCCCCCCCc1ccc(-c2noc(C3(NC(=N)N)CC3)n2)cc1` [Compound 44, 1-(1-(3-(4-dodecylphenyl)-1,2,4-oxadiazol-5-yl)cyclopropyl)guanidine], over 10 µM.

For `CCCCCCCCCCCc1ccc(OC)c(-c2nnc(C3(C(=N)N)CC3)o2)c1` [Compound 24, 1-(5-(2-methoxy-5-undecylphenyl)-1,3,4-oxadiazol-2-yl)cyclopropanecarboximidamide], the inhibition constant Ki is under 1 µM.

With `N=C(N)N1CCC[C@H]1c1nc(-c2ccc(I)cc2)no1` [Compound 37, (S)-2-(3-(4-iodophenyl)-1,2,4-oxadiazol-5-yl)pyrrolidine-1-carboximidamide], the Ki is over 10 µM.

Consider `CCCCCCCCCCCCc1noc([C@@H]2CCCN2C(=N)N)n1` [Compound 40, (S)-2-(3-dodecyl-1,2,4-oxadiazol-5-yl)pyrrolidine-1-carboximidamide], for which the inhibitory constant (Ki) is over 10 µM. `CCCCCCCCCCCCCCCCc1noc([C@@H]2CCCN2C(=N)N)n1` [Compound 41, (S)-2-(3-hexadecyl-1,2,4-oxadiazol-5-yl)pyrrolidine-1-carboximidamide]: the Ki is over 10 µM. Still for that read-out and setting: the value for `CCCCCCCCCCCCC/C=C/CC(=N)N` [Compound 4, (E)-heptadec-3-enimidamide] was over 10 µM; that for `CCCCCCCCCCc1ccc(/C=C/CC(=N)N)cc1` [Compound 6, (E)-4-(4-decylphenyl)but-3-enimidamide] was over 10 µM. Same read-out and setting: as for `CCCCCCCCCCc1ccc(CCCC(=N)N)cc1` [Compound 5, 4-(4-decylphenyl)butanimidamide], the figure is over 10 µM; as for `CCCCCCCCCCCCc1noc(C[C@@H]2CCCN2C(=N)N)n1` [Compound 76, (S)-2-((3-dodecyl-1,2,4-oxadiazol-5-yl)methyl)pyrrolidine-1-carboximidamide], over 10 µM; as for `CCCCCCCCc1cccc(-c2noc([C@@H]3CCCN3C(=N)N)n2)c1` [Compound 58, (S)-2-(3-(3-octylphenyl)-1,2,4-oxadiazol-5-yl)pyrrolidine-1-carboximidamide], over 10 µM. Still for that read-out and setting: the value for `CCCCCCCCCCCc1cc(-c2nnc(C3(C(=N)N)CC3)o2)c(OC)cc1OC` [Compound 22, 1-(5-(2,4-dimethoxy-5-undecylphenyl)-1,3,4-oxadiazol-2-yl)cyclopropanecarboximidamide] was under 1 µM.

On to `CCCCCCCCc1ccc(-c2noc([C@@H]3CCN(C(=N)N)C3)n2)cc1` [Compound 59, (R)-3-(3-(4-octylphenyl)-1,2,4-oxadiazol-5-yl)pyrrolidine-1-carboximidamide], for which the Ki is over 10 µM. Same read-out and setting: as for `CCCCCCCCc1ccc(-c2noc(C3(NC(=N)N)CC3)n2)cc1` [Compound 42, 1-(1-(3-(4-octylphenyl)-1,2,4-oxadiazol-5-yl)cyclopropyl)guanidine], the figure is over 10 µM; as for `N=C(N)N1CCC[C@H]1Cc1nc(-c2ccc(CS(=O)(=O)c3ccccc3)cc2)no1` [Compound 77, (S)-2-((3-(4-((phenylsulfonyl)methyl)phenyl)-1,2,4-oxadiazol-5-yl)methyl)pyrrolidine-1-carboximidamide], over 10 µM. Consider `N=C(N)N1CCC[C@H]1c1nc(-c2ccc(C#CC3CCCC3)cc2)no1` [Compound 38, (S)-2-(3-(4-(cyclopentylethynyl)phenyl)-1,2,4-oxadiazol-5-yl)pyrrolidine-1-carboximidamide], for which the Ki was over 10 µM. The same measure, in the same setting: the value for `CCCCCCCCCCCc1cc(-c2nnc(C3(C(=N)N)CC3)o2)ccc1OC` [Compound 27, 1-(5-(4-methoxy-3-undecylphenyl)-1,3,4-oxadiazol-2-yl)cyclopropanecarboximidamide] was under 1 µM; that for `CCCCCCCCc1ccc(C(=O)NCCOC(=N)N)cc1` [Compound 33, 2-(4-octylbenzamido)ethyl carbamimidate] was over 10 µM. For the compound `CCCCCCCCc1ccc(CC[C@@H](N)C(=N)N)cc1` [Compound 8, (R)-2-amino-4-(4-octylphenyl)butanimidamide], the Ki is over 10 µM. Same read-out and setting: as for `CCCCCCCCc1noc([C@@H]2CCCN2C(=N)N)n1` [Compound 39, (S)-2-(3-octyl-1,2,4-oxadiazol-5-yl)pyrrolidine-1-carboximidamide], the figure is over 10 µM; as for `CCCCCCCCCCCCc1ccc(-c2coc(CC(=N)N)n2)cc1` [Compound 19, 2-(4-(4-dodecylphenyl)oxazol-2-yl)acetimidamide], over 10 µM; as for `CCCCCCCCc1cccc(-c2noc(C[C@@H]3CCCN3C(=N)N)n2)c1` [Compound 74, (S)-2-((3-(3-octylphenyl)-1,2,4-oxadiazol-5-yl)methyl)pyrrolidine-1-carboximidamide], over 10 µM.
